From patent publication US20100234364A1, “CCR2 INHIBITORS AND METHODS OF USE THEREOF” (priority 2007, published 2010)

Biological target: T1, CCR2 (Homo sapiens, UniProt P41597)
T1 construct: chemokine expressing cells (such as THP-1 cells for CCR2 assay or MOLT-4 cells for CCR9 assay); host or cells: THP-1 cells
Assay: chemotaxis (conventional migration), ligand binding or calcium mobilization (calcium flux) assays
Assay type: cell-based
Procedure: THP-1 cells and MOLT-4 cells were obtained from the American Type Culture Collection (Manassas, Va.) and cultured in RPMI tissue culture medium supplemented with 10% fetal calf serum (FCS) in a humidified 5% CO2 incubator at 37° C. Recombinant human chemokine proteins MCP-1 and TECK were obtained from R&D Systems (Minneapolis, Minn.). ^125I-labeled MCP-1 protein was obtained from Amersham (Piscataway, N.J.). ChemoTX® chemotaxis microchambers were purchased from Neuro Probe (Gaithersburg, Md.). CyQUANT® cell proliferation kits were purchased from Molecular Probes (Eugene, Oreg.). Calcium indicator dye Fluo-4 AM was purchased from Molecular Devices (Mountain View, Calif.).
Conventional-migration assay was used to determine the efficacy of potential receptor antagonists in blocking migration mediated through chemokines (such as CCR2 or CCR9). This assay was routinely performed using the ChemoTX® microchamber system with a 5-μm pore-sized polycarbonate membrane. To begin such an assay, chemokine expressing cells (such as THP-1 cells for CCR2 assay or MOLT-4 cells for CCR9 assay) were harvested by centrifugation of cell suspension at 1000 RPM on a GS-6R Beckman centrifuge. The cell pellet was resuspended in chemotaxis buffer (HBSS with 0.1% BSA) at 10×10^6cells/mL for CCR2 assay (5 ×10^6cells/mL for CCR9 assay). Test compounds at desired concentrations were prepared from 10 mM stock solutions by serial dilutions in chemotaxis buffer. An equal volume of cells and compounds were mixed and incubated at room temperature for 15 minutes. Afterwards, 20 μL of the mixture was transferred onto the porous membrane of a migration microchamber, with 29 μL of chemokine ligand (0.1 nM chemokine MCP-1 protein for CCR2 assay or 50 nm chemokine TECK protein for CCR9 assay) placed at the lower chamber. Following an incubation at 37° C. (90-minute for CCR2; 150-minute for CCR9), during which cells migrated […] the chemokine gradient, the assay was terminated by removing the cell drops from atop the filter. To quantify cells migrated across the membrane, 5 μL of 7X CyQUANT® solution was added to each well in the lower chamber, and the fluorescence signal measured on a Spectrafluor Plus fluorescence plate reader (TECAN, Durham, N.C.). The degree of inhibition was determined by comparing migration signals between compound-treated and untreated cells. IC50 calculation was further performed by non-linear squares regression analysis using Graphpad Prism (Graphpad Software, San Diego, Calif.).
Calcium flux assay measures an increase in intracellular calcium following ligand-induced receptor activation. In the screen of chemokine antagonists, it was used as a secondary assay carried out on a FLIPR® machine (Molecular Devices, Mountain View, Calif.). To begin an assay, chemokine expressing cells (such as THP-1 cells for CCR2 assay or MOLT-4 cells for CCR9 assay) were harvested by centrifugation of cell suspension, and resuspended to 1.5×10^6 cells/mL in HBSS (with 1% fetal calf serum). Cells were then labeled with a calcium indicator dye Fluo-4 AM for 45 minutes at 37° C. with gentle shaking. Following incubation, cells were pelletted, washed once with HBSS and resuspended in the same buffer at a density of 1.6×10^6 cells/mL. One hundred microliters of labeled cells were mixed with 10 μL of test compound at the appropriate concentrations on an assay plate. Chemokine protein (MCP-1 at a final concentration of 0.1 nM for CCR2 assay or TECK at a final concentration of 25 nM for CCR9 assay) to activate the receptor. The degree of inhibition was determined by comparing calcium signals between compound-treated and untreated cells. IC50 calculations were further performed by non-linear squares regression analysis using Graphpad Prism (Graphpad Software, San Diego, Calif.).
Ligand binding assay was used to determine the ability of potential CCR2 antagonists to block the interaction between CCR2 and its ligand MCP-1. […]

[1] = Table 2: activity in one of the chemotaxis
[2] = Table 3: activity in one of the chemotaxis

T1 sequence (P41597 whole entry): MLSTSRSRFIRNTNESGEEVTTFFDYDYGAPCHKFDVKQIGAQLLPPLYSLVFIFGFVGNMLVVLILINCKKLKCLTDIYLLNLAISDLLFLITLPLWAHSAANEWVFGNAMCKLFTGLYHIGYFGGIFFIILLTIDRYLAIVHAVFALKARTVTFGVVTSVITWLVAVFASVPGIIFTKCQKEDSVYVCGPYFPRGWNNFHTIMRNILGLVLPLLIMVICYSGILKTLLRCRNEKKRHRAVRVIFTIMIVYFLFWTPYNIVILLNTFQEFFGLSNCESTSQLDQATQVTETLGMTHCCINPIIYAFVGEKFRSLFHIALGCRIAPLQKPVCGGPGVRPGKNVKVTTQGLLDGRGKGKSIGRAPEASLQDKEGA

O=C(c1ccccc1)c1cc(Cl)ccc1NS(=O)(=O)c1ccc(Cl)c(C(F)(F)F)c1 [drawing 302]
IC50 [1]: < 500 nM

Cn1ccnc1C(O)c1cc(Cl)ccc1NS(=O)(=O)c1ccc(Cl)c(Cl)c1 (stereo not drawn) [drawing 303]
IC50 [1]: < 500 nM

O=S(=O)(Nc1ccc(Cl)cc1-c1nnn[nH]1)c1ccc(Cl)c(Cl)c1 [drawing 304]
IC50 [1]: < 500 nM

O=C(c1ccc(F)cc1)c1cc(Cl)ccc1NS(=O)(=O)c1ccc(Cl)c(Cl)c1 [drawing 305]
IC50 [1]: < 500 nM

O=C(c1ccccc1F)c1cc(Cl)ccc1NS(=O)(=O)c1ccc(Cl)c(Cl)c1 [drawing 306]
IC50 [1]: < 500 nM

Cn1ccc(C(=O)c2cc(Cl)ccc2NS(=O)(=O)c2ccc(Cl)c(C(F)(F)F)c2)n1 [drawing 311]
IC50 [1]: < 500 nM

Cn1ccc(C(=O)c2cc(Cl)ccc2NS(=O)(=O)c2ccc(Cl)c(C(F)(F)F)c2)n1 [drawing 322]
IC50 [2]: 500 to 5000 nM

O=S(=O)(Nc1ccc(Cl)cc1-c1nnn[nH]1)c1ccc(Cl)c(Cl)c1 [drawing 325]
IC50 [2]: 500 to 5000 nM

Cn1ccnc1C(O)c1cc(Cl)ccc1NS(=O)(=O)c1ccc(Cl)c(Cl)c1 (stereo not drawn) [drawing 327]
IC50 [2]: 500 to 5000 nM

O=C(c1ccccc1)c1ccc(Br)cc1NS(=O)(=O)c1ccc(Cl)c(Cl)c1 [drawing 328]
IC50 [2]: 500 to 5000 nM

O=C(c1ccccc1)c1cc(Cl)ccc1NS(=O)(=O)c1ccc(Cl)cc1 [drawing 330]
IC50 [2]: 500 to 5000 nM

O=C(c1ccccc1F)c1cc(Cl)ccc1NS(=O)(=O)c1ccc(Cl)c(Cl)c1 [drawing 335]
IC50 [2]: 500 to 5000 nM

O=C(c1ccc(F)cc1)c1cc(Cl)ccc1NS(=O)(=O)c1ccc(Cl)c(Cl)c1 [drawing 336]
IC50 [2]: 500 to 5000 nM

O=C(c1ccccc1)c1cc(Cl)ccc1NS(=O)(=O)c1ccc(Cl)c(C(F)(F)F)c1 [drawing 337]
IC50 [2]: 500 to 5000 nM

O=C(c1ccccc1)c1cc(F)ccc1NS(=O)(=O)c1ccc(Cl)c(Cl)c1 [drawing 338]
IC50 [2]: 500 to 5000 nM

O=C(c1ccccc1)c1cc(Cl)ccc1NS(=O)(=O)c1ccc(Cl)c(Cl)c1 [drawing 342]
IC50 [2]: 500 to 5000 nM

O=C(c1ccccc1)c1ccc(Cl)cc1NS(=O)(=O)c1ccc(Cl)c(C(F)(F)F)c1 [drawing 344]
IC50 [2]: 500 to 5000 nM

O=C(c1ccc(Cl)cc1NS(=O)(=O)c1ccc(Cl)c(C(F)(F)F)c1)N1CCCCC1 [drawing 371]
IC50 [2]: 500 to 5000 nM
